Measurements published in paper PMC12261228 (ACS Pharmacology & Translational Science, 2025).

Assays:
CCRF-CEM lymphoblasts = assay: FACS analysis of cell cycle, apoptosis, mitosis and polyploidy; settings: for Mitosis: phospho-Histone (Ser10); for Apoptosis: sub-G0/G1 DNA content, % of positive cells
K562-TAX = assay: MTS cytotoxicity assay, 72 h; format: cell-based; settings: read-out: IC50 K562-TAX
K562 = assay: MTS cytotoxicity assay, 72 h; format: cell-based; settings: Homo sapiens, K562, 72 h, read-out: IC50 K562
MRC-5 = assay: MTS cytotoxicity assay, 72 h; format: cell-based; settings: Homo sapiens, MRC5, 72 h, read-out: IC50 MRC-5
U2OS = assay: MTS cytotoxicity assay, 72 h; format: cell-based, human; settings: Homo sapiens, U2OS, 72 h, read-out: IC50 U2OS, MTS assay, 3-day incubation, mean ± SD
BJ = assay: MTS cytotoxicity assay, 72 h; format: cell-based; settings: Homo sapiens, read-out: IC50 BJ
HUVEC = assay: MTS cytotoxicity assay, 72 h; format: cell-based; settings: Homo sapiens, 3-day incubation, mean ± SD
CCRF-CEM = assay: MTS cytotoxicity assay, 72 h; format: cell-based; settings: Homo sapiens, CCRF-CEM, 72 h, read-out: IC50 CCRF-CEM, MTS assay, 3-day incubation, mean ± SD of 3 experiments
CEM-DNR = assay: MTS cytotoxicity assay, 72 h; format: cell-based; settings: Homo sapiens, read-out: IC50 CEM-DNR
HCT116 = assay: MTS cytotoxicity assay, 72 h; format: cell-based; settings: Homo sapiens, HCT-116, 72 h, read-out: IC50 HCT116
HCT116p53–/– = assay: MTS cytotoxicity assay, 72 h; format: cell-based; settings: read-out: IC50 HCT116p53–/–

COc1cc2c(c(OC)c1OC)-c1ccc(OC)c(=O)cc1[C@@H](NC(=O)CCCCCCCCCCC1=C3C(C)=CC(C)=[N+]3[B-](F)(F)n3c(C)cc(C)c31)CC2 [CB2]
G0/G1 (CCRF-CEM lymphoblasts; 1×IC50, 24 h): 6.59% | G2/M (CCRF-CEM lymphoblasts; 1×IC50, 24 h): 89.19% | Polyploid cells (CCRF-CEM lymphoblasts; 1×IC50, 24 h): 23.67% | S (CCRF-CEM lymphoblasts; 1×IC50, 24 h): 4.22% | Mitosis (CCRF-CEM lymphoblasts; 1×IC50, 24 h): 45.60% | Apoptosis (CCRF-CEM lymphoblasts; 1×IC50, 24 h): 8.51% | G0/G1 (CCRF-CEM lymphoblasts; 5×IC50, 24 h): 5.2% | Polyploid cells (CCRF-CEM lymphoblasts; 5×IC50, 24 h): 26.18% | S (CCRF-CEM lymphoblasts; 5×IC50, 24 h): 1.29% | Mitosis (CCRF-CEM lymphoblasts; 5×IC50, 24 h): 79.51% | Apoptosis (CCRF-CEM lymphoblasts; 5×IC50, 24 h): 13.84% | IC50 (K562-TAX): 0.58 ± 0.035 µM | IC50 (K562): 0.19 ± 0.04 µM | IC50 (MRC-5): > 50 µM | IC50 (U2OS): > 50 µM | IC50 (BJ): > 50 µM | IC50 (HUVEC): 0.36 ± 0.035 µM | RI (resistance index) (panel of cell lines): 3.90 | SI (selectivity index) (panel of cell lines): >1.66 | cytotoxic activity across the cell line panel (in words) (panel of cell lines): selectively killed/affected suspension cell lines | IC50 (CCRF-CEM): 0.33 ± 0.005 µM | IC50 (CEM-DNR): 1.45 ± 0.06 µM | IC50 (HCT116): > 50 µM | IC50 (HCT116p53–/–): > 50 µM

COc1cc2c(c(OC)c1OC)-c1ccc(OC)c(=O)cc1[C@@H](NC(=O)CCCC[N+](C)(C)CCCCC1=C3C(C)=CC(C)=[N+]3[B-](F)(F)n3c(C)cc(C)c31)CC2 [CB3]
apoptosis in CCRF-CEM cells (CCRF-CEM lymphoblasts; 1× and 5 × IC50, compared with DMSO): 20% | G0/G1 (CCRF-CEM lymphoblasts; 1×IC50, 24 h): 2.89% | G2/M (CCRF-CEM lymphoblasts; 1×IC50, 24 h): 79.08% | Polyploid cells (CCRF-CEM lymphoblasts; 1×IC50, 24 h): 26.03% | S (CCRF-CEM lymphoblasts; 1×IC50, 24 h): 18.03% | Mitosis (CCRF-CEM lymphoblasts; 1×IC50, 24 h): 58.58% | Apoptosis (CCRF-CEM lymphoblasts; 1×IC50, 24 h): 16.41% | G0/G1 (CCRF-CEM lymphoblasts; 5×IC50, 24 h): 7.84% | G2/M (CCRF-CEM lymphoblasts; 5×IC50, 24 h): 84.01% | Polyploid cells (CCRF-CEM lymphoblasts; 5×IC50, 24 h): 26.25% | S (CCRF-CEM lymphoblasts; 5×IC50, 24 h): 8.15% | Mitosis (CCRF-CEM lymphoblasts; 5×IC50, 24 h): 57.12% | Apoptosis (CCRF-CEM lymphoblasts; 5×IC50, 24 h): 20.64% | IC50 (K562-TAX): 40.1 ± 1.07 µM | IC50 (K562): 9.5 ± 2.37 µM | IC50 (MRC-5): > 50 µM | IC50 (U2OS): > 50 µM | IC50 (BJ): > 50 µM | IC50 (HUVEC): > 50 µM | RI (resistance index) (panel of cell lines): >4.79 | SI (selectivity index) (panel of cell lines): >1.83 | cytotoxic activity across the cell line panel (in words) (panel of cell lines): significantly lower | IC50 (CCRF-CEM): 9.33 ± 0.952 µM | IC50 (CEM-DNR): > 50 µM | IC50 (HCT116): 31.6 ± 4.54 µM | IC50 (HCT116p53–/–): 36.4 ± 5.03 µM

COc1cc2c(c(OC)c1OC)-c1ccc(OC)c(=O)cc1[C@@H](n1cc(CCCCCCCCC3=C4C(C)=CC(C)=[N+]4[B-](F)(F)n4c(C)cc(C)c43)[n+](C)n1)CC2 [CB8]
G0/G1 (CCRF-CEM lymphoblasts; 1×IC50, 24 h): 8.68% | G2/M (CCRF-CEM lymphoblasts; 1×IC50, 24 h): 80.01% | Polyploid cells (CCRF-CEM lymphoblasts; 1×IC50, 24 h): 23.43% | S (CCRF-CEM lymphoblasts; 1×IC50, 24 h): 11.31% | Mitosis (CCRF-CEM lymphoblasts; 1×IC50, 24 h): 5.79% | Apoptosis (CCRF-CEM lymphoblasts; 1×IC50, 24 h): 11.09% | G0/G1 (CCRF-CEM lymphoblasts; 5×IC50, 24 h): 9.49% | G2/M (CCRF-CEM lymphoblasts; 5×IC50, 24 h): 87.34% | Polyploid cells (CCRF-CEM lymphoblasts; 5×IC50, 24 h): 20.18% | S (CCRF-CEM lymphoblasts; 5×IC50, 24 h): 3.17% | Mitosis (CCRF-CEM lymphoblasts; 5×IC50, 24 h): 13.33% | Apoptosis (CCRF-CEM lymphoblasts; 5×IC50, 24 h): 3.98% | IC50 (K562-TAX): 6.35 ± 0.335 µM | IC50 (K562): 7.83 ± 0.892 µM | IC50 (MRC-5): 22.1 ± 1.22 µM | IC50 (U2OS): 11.9 ± 1.11 µM | IC50 (BJ): 36.9 ± 5.68 µM | IC50 (HUVEC): 23.5 ± 1.29 µM | RI (resistance index) (panel of cell lines): 0.86 | SI (selectivity index) (panel of cell lines): 3.28 | IC50 (CCRF-CEM): 7.11 ± 1.14 µM | IC50 (CEM-DNR): 6.53 ± 0.458 µM | IC50 (HCT116): 8.81 ± 1.94 µM | IC50 (HCT116p53–/–): 9.36 ± 0.87 µM
